Patent publication US20210038515A1 (Azurity Pharmaceuticals, Inc., priority 2014, published 2021)

Test system: Clostridium difficile
Assay: Agar dilution MIC of vancomycin preparations (Sigma, Cutis), diluent, Na benzoate and Na citrate
Format: cell-based
Settings: for MIC, AV (average): average of triplicate; for MIC, VAN-1: replicate 1; for MIC, VAN-2: replicate 2; for MIC, VAN-3: replicate 3
Description: Introduction: The purpose of the study was to compare the MICs obtained with the formulation of vancomycin HCL of the invention (Cutis) to formulations obtained using a vancomycin HCL reference standard powder obtained from Sigma. The Example also involves the analysis of a solution or diluent to determine if it has antimicrobial activity at the concentrations present in the agar dilution test.
The C. difficile were tested by agar dilution according to the procedures in the Clinical and Laboratory Standards Institute. 2012. Methods for antimicrobial susceptibility testing of anaerobic bacteria; approved standard-seventh edition.
Other anaerobic organisms included clinical isolates of Bifidobacterium adolescentis and Bacteroides fragilis. Clostridium difficile ATCC 700057 was included as a quality control strain.
The C. difficile isolates were recovered from patients with CDI during the past two years and stored at −70° C. in 20% skim milk. Ribotyping was performed by another reference laboratory. The strains were taken from the freezer and subcultured at least twice to ensure purity and good growth.
On the day of testing, they were suspended in Brucella broth to the turbidity of the 0.5 McFarland standard for testing.
Stock solution of the Sigma vancomycin was prepared in water and stored at −70° C. On the day of testing, it was thawed and further diluted in water to obtain the desired range of 16-0.125 μg/ml. The Cutis vancomycin (25 mg/ml) was reconstituted on the day of testing and further diluted for a final range of 16-0.125 μg/ml in the test. The antimicrobials were added to molten Brucella agar supplemented with vitamin K and hemin to prepare the plates. Drug-free growth controls were included for testing before and after each set of plates. All testing was done in triplicate.
The organisms were pipetted into the wells of the Steers replicator head and applied to the plates with the multi-pronged replicator. The final concentration of organisms was ˜10^5 CFU/spot.
The plates were incubated in the anaerobic chamber incubator for 44 h and examined for growth.
The Cutis diluent comprises: water, about 0.12% (w/v) citric acid (anhydrous), 0.2% (w/v) sucralose, about 0.05% (w/v) artificial grape flavor, 0.1% (w/v) sodium benzoate, about 0.0002% (w/v) D&C Yellow No. 10 and about 0.000038% (w/v) FD&C Red No. 40.

[1] = ATCC 700057 quality control strain, first set (r41)
[2] = ATCC 700057 quality control strain, second set (r74)

For `CN[C@H](CC(C)C)C(=O)N[C@H]1C(=O)N[C@@H](CC(N)=O)C(=O)N[C@H]2C(=O)N[C@H]3C(=O)N[C@H](C(=O)N[C@H](C(=O)O)c4cc(O)cc(O)c4-c4cc3ccc4O)[C@H](O)c3ccc(c(Cl)c3)Oc3cc2cc(c3O[C@@H]2O[C@H](CO)[C@@H](O)[C@H](O)[C@H]2O[C@H]2C[C@](C)(N)[C@H](O)[C@H](C)O2)Oc2ccc(cc2Cl)[C@H]1O.Cl` [Sigma], the “MIC, AV (average)” value [1] was 2 mg/L, the “MIC, VAN-1” value [1] was 2 mg/L and the “MIC, VAN-2” value [1] was 2 mg/L. The “MIC, VAN-3” value [1] was 2 mg/L, the “MIC, AV (average)” value [2] was 2 mg/L and the “MIC, VAN-1” value [2] was 2 mg/L. For the same compound, the “MIC, VAN-2” value [2] was 2 mg/L, the “MIC, VAN-3” value [2] was 2 mg/L and the “MIC, AV (average)” value (RMA 24504, ribotype 027) was 2 mg/L. The “MIC, VAN-1” value (RMA 24504, ribotype 027) was 2 mg/L, the “MIC, VAN-2” value (RMA 24504, ribotype 027) was 2 mg/L and the “MIC, VAN-3” value (RMA 24504, ribotype 027) was 2 mg/L. The “MIC, AV (average)” value (RMA 24510, ribotype 027) was 1.7 mg/L, the “MIC, VAN-1” value (RMA 24510, ribotype 027) was 2 mg/L and the “MIC, VAN-2” value (RMA 24510, ribotype 027) was 2 mg/L. For the same compound, the “MIC, VAN-3” value (RMA 24510, ribotype 027) was 1 mg/L, the “MIC, AV (average)” value (RMA 24519, ribotype 027) was 1.7 mg/L and the “MIC, VAN-1” value (RMA 24519, ribotype 027) was 2 mg/L. For the same compound, the “MIC, VAN-2” value (RMA 24519, ribotype 027) was 2 mg/L, the “MIC, VAN-3” value (RMA 24519, ribotype 027) was 1 mg/L and the “MIC, AV (average)” value (RMA 24527, ribotype 014) was 2 mg/L. For the same compound, the “MIC, VAN-1” value (RMA 24527, ribotype 014) was 2 mg/L, the “MIC, VAN-2” value (RMA 24527, ribotype 014) was 2 mg/L and the “MIC, VAN-3” value (RMA 24527, ribotype 014) was 2 mg/L. The “MIC, AV (average)” value (RMA 24529, ribotype 014) was 2 mg/L, the “MIC, VAN-1” value (RMA 24529, ribotype 014) was 2 mg/L and the “MIC, VAN-2” value (RMA 24529, ribotype 014) was 2 mg/L. For the same compound, the “MIC, VAN-3” value (RMA 24529, ribotype 014) was 2 mg/L, the “MIC, AV (average)” value (RMA 24541, ribotype 020) was 1.7 mg/L and the “MIC, VAN-1” value (RMA 24541, ribotype 020) was 1 mg/L. The “MIC, VAN-2” value (RMA 24541, ribotype 020) was 2 mg/L, the “MIC, VAN-3” value (RMA 24541, ribotype 020) was 2 mg/L and the “MIC, AV (average)” value (RMA 24543, ribotype 020) was 1.3 mg/L. For the same compound, the “MIC, VAN-1” value (RMA 24543, ribotype 020) was 1 mg/L, the “MIC, VAN-2” value (RMA 24543, ribotype 020) was 1 mg/L and the “MIC, VAN-3” value (RMA 24543, ribotype 020) was 2 mg/L. The “MIC, AV (average)” value (RMA 24547, ribotype 014) was 1 mg/L, the “MIC, VAN-1” value (RMA 24547, ribotype 014) was 1 mg/L and the “MIC, VAN-2” value (RMA 24547, ribotype 014) was 1 mg/L. For the same compound, the “MIC, VAN-3” value (RMA 24547, ribotype 014) was 1 mg/L, the “MIC, AV (average)” value (RMA 24560, ribotype 078) was 1.7 mg/L and the “MIC, VAN-1” value (RMA 24560, ribotype 078) was 2 mg/L. The “MIC, VAN-2” value (RMA 24560, ribotype 078) was 2 mg/L, the “MIC, VAN-3” value (RMA 24560, ribotype 078) was 1 mg/L and the “MIC, AV (average)” value (RMA 24561, ribotype 078) was 2 mg/L. The “MIC, VAN-1” value (RMA 24561, ribotype 078) was 2 mg/L, the “MIC, VAN-2” value (RMA 24561, ribotype 078) was 2 mg/L and the “MIC, VAN-3” value (RMA 24561, ribotype 078) was 2 mg/L. The “MIC, AV (average)” value (RMA 24567, ribotype 020) was 2 mg/L, the “MIC, VAN-1” value (RMA 24567, ribotype 020) was 2 mg/L and the “MIC, VAN-2” value (RMA 24567, ribotype 020) was 2 mg/L. For the same compound, the “MIC, VAN-3” value (RMA 24567, ribotype 020) was 2 mg/L, the “MIC, AV (average)” value (RMA 24575, ribotype 078) was 2.7 mg/L and the “MIC, VAN-1” value (RMA 24575, ribotype 078) was 2 mg/L. For the same compound, the “MIC, VAN-2” value (RMA 24575, ribotype 078) was 4 mg/L, the “MIC, VAN-3” value (RMA 24575, ribotype 078) was 2 mg/L and the “MIC, AV (average)” value (RMA 24594, ribotype 106) was 3.3 mg/L. For the same compound, the “MIC, VAN-1” value (RMA 24594, ribotype 106) was 4 mg/L, the “MIC, VAN-2” value (RMA 24594, ribotype 106) was 2 mg/L and the “MIC, VAN-3” value (RMA 24594, ribotype 106) was 4 mg/L. For the same compound, the “MIC, AV (average)” value (RMA 24601, ribotype 106) was 2 mg/L, the “MIC, VAN-1” value (RMA 24601, ribotype 106) was 2 mg/L and the “MIC, VAN-2” value (RMA 24601, ribotype 106) was 2 mg/L. For the same compound, the “MIC, VAN-3” value (RMA 24601, ribotype 106) was 2 mg/L, the “MIC, AV (average)” value (RMA 24605, ribotype 002) was 2 mg/L and the “MIC, VAN-1” value (RMA 24605, ribotype 002) was 2 mg/L. For the same compound, the “MIC, VAN-2” value (RMA 24605, ribotype 002) was 2 mg/L, the “MIC, VAN-3” value (RMA 24605, ribotype 002) was 2 mg/L and the “MIC, AV (average)” value (RMA 24607, ribotype 106) was 2 mg/L. The “MIC, VAN-1” value (RMA 24607, ribotype 106) was 2 mg/L, the “MIC, VAN-2” value (RMA 24607, ribotype 106) was 2 mg/L and the “MIC, VAN-3” value (RMA 24607, ribotype 106) was 2 mg/L. For the same compound, the “MIC, AV (average)” value (RMA 24608, ribotype 002) was 2 mg/L, the “MIC, VAN-1” value (RMA 24608, ribotype 002) was 2 mg/L and the “MIC, VAN-2” value (RMA 24608, ribotype 002) was 2 mg/L. For the same compound, the “MIC, VAN-3” value (RMA 24608, ribotype 002) was 2 mg/L, the “MIC, AV (average)” value (RMA 24615, ribotype 005) was 2 mg/L and the “MIC, VAN-1” value (RMA 24615, ribotype 005) was 2 mg/L. For the same compound, the “MIC, VAN-2” value (RMA 24615, ribotype 005) was 2 mg/L, the “MIC, VAN-3” value (RMA 24615, ribotype 005) was 2 mg/L and the “MIC, AV (average)” value (RMA 24628, ribotype 012) was 2 mg/L. The “MIC, VAN-1” value (RMA 24628, ribotype 012) was 2 mg/L, the “MIC, VAN-2” value (RMA 24628, ribotype 012) was 2 mg/L and the “MIC, VAN-3” value (RMA 24628, ribotype 012) was 2 mg/L. The “MIC, AV (average)” value (RMA 24641, ribotype 001/072) was 2 mg/L, the “MIC, VAN-1” value (RMA 24641, ribotype 001/072) was 2 mg/L and the “MIC, VAN-2” value (RMA 24641, ribotype 001/072) was 2 mg/L. The “MIC, VAN-3” value (RMA 24641, ribotype 001/072) was 2 mg/L, the “MIC, AV (average)” value (RMA 24643, ribotype 001/072) was 2 mg/L and the “MIC, VAN-1” value (RMA 24643, ribotype 001/072) was 2 mg/L. For the same compound, the “MIC, VAN-2” value (RMA 24643, ribotype 001/072) was 2 mg/L, the “MIC, VAN-3” value (RMA 24643, ribotype 001/072) was 2 mg/L and the “MIC, AV (average)” value (RMA 24646, ribotype 001/072) was 2 mg/L. For the same compound, the “MIC, VAN-1” value (RMA 24646, ribotype 001/072) was 2 mg/L, the “MIC, VAN-2” value (RMA 24646, ribotype 001/072) was 2 mg/L and the “MIC, VAN-3” value (RMA 24646, ribotype 001/072) was 2 mg/L. For the same compound, the “MIC, AV (average)” value (RMA 24655, ribotype 005) was 2 mg/L, the “MIC, VAN-1” value (RMA 24655, ribotype 005) was 2 mg/L and the “MIC, VAN-2” value (RMA 24655, ribotype 005) was 2 mg/L. For the same compound, the “MIC, VAN-3” value (RMA 24655, ribotype 005) was 2 mg/L, the “MIC, AV (average)” value (RMA 24678, ribotype 012) was 4 mg/L and the “MIC, VAN-1” value (RMA 24678, ribotype 012) was 4 mg/L. The “MIC, VAN-2” value (RMA 24678, ribotype 012) was 4 mg/L, the “MIC, VAN-3” value (RMA 24678, ribotype 012) was 4 mg/L and the “MIC, AV (average)” value (RMA 24683, ribotype 027) was 2 mg/L. The “MIC, VAN-1” value (RMA 24683, ribotype 027) was 2 mg/L, the “MIC, VAN-2” value (RMA 24683, ribotype 027) was 2 mg/L and the “MIC, VAN-3” value (RMA 24683, ribotype 027) was 2 mg/L.
